In brackets after ≈: the same amount, converted by molar mass.
Experiments:
[1] = Effective concentration required for scavenging of superoxide anion radical generation from the tentical protein of jellyfish; type: functional, Rhopilema esculentum
[2] = Effective concentration required for scavenging of hydroxyl radical generation from the tentical protein of jellyfish; type: functional, Rhopilema esculentum

SMILES: Cc1c(C)c2c(c(C)c1O)CC[C@@](C)(CCC[C@H](C)CCC[C@H](C)CCCC(C)C)O2 [ALPHA-TOCOPHEROL]
- EC50 [1]: 88 µg/mL (≈ 204 µM)

SMILES: COc1ccc(O)c(C(C)(C)C)c1.COc1ccc(O)cc1C(C)(C)C [BUTYLATED HYDROXYANISOLE]
- EC50 [1]: 31 µg/mL

SMILES: Cc1cc(C(C)(C)C)c(O)c(C(C)(C)C)c1 [BUTYLATED HYDROXYTOLUENE]
- EC50 [1]: 61 µg/mL (≈ 277 µM)

SMILES: OC[C@@H](O)[C@@H](O)[C@H](O)[C@H](O)CO [MANNITOL]
- EC50 [2]: 4536 µg/mL (≈ 24900 µM)

— ChEMBL document CHEMBL1139559, “Radical scavenging activity of protein from tentacles of jellyfish Rhopilema esculentum” (Bioorg Med Chem Lett, 2005)
